Data published in patent US9000186B2, “Ring-fused heterocyclic derivative” (Kyowa Hakko Kirin Co., Ltd., priority 2011, dated 2015).
Read-outs that look alike come from different tables or passages of the source.

Biological target: T1, human Cav3.2 T-type Ca2+ channel (Homo sapiens, UniProt O95180)
T1 construct: expressed in transfected cells; host or cells: KJMGER8 cells (Namalwa cell-derived cell line)
Assay: Inhibitory effect for intracellular calcium response via Cav3.2 T-type Ca2+ channels (FLIPR Calcium 3 Assay Kit)
Format: cell-based

[1] = human Cav3.2-expressing KJMGER8 cells (Namalwa-derived), calcium response induced by 5 mmol/L CaCl2, normalised to 3 μmol/L mibefradil, read-out: IC50 for the human Cav3.2 T-type Ca2+ current

T1 sequence (O95180 whole entry): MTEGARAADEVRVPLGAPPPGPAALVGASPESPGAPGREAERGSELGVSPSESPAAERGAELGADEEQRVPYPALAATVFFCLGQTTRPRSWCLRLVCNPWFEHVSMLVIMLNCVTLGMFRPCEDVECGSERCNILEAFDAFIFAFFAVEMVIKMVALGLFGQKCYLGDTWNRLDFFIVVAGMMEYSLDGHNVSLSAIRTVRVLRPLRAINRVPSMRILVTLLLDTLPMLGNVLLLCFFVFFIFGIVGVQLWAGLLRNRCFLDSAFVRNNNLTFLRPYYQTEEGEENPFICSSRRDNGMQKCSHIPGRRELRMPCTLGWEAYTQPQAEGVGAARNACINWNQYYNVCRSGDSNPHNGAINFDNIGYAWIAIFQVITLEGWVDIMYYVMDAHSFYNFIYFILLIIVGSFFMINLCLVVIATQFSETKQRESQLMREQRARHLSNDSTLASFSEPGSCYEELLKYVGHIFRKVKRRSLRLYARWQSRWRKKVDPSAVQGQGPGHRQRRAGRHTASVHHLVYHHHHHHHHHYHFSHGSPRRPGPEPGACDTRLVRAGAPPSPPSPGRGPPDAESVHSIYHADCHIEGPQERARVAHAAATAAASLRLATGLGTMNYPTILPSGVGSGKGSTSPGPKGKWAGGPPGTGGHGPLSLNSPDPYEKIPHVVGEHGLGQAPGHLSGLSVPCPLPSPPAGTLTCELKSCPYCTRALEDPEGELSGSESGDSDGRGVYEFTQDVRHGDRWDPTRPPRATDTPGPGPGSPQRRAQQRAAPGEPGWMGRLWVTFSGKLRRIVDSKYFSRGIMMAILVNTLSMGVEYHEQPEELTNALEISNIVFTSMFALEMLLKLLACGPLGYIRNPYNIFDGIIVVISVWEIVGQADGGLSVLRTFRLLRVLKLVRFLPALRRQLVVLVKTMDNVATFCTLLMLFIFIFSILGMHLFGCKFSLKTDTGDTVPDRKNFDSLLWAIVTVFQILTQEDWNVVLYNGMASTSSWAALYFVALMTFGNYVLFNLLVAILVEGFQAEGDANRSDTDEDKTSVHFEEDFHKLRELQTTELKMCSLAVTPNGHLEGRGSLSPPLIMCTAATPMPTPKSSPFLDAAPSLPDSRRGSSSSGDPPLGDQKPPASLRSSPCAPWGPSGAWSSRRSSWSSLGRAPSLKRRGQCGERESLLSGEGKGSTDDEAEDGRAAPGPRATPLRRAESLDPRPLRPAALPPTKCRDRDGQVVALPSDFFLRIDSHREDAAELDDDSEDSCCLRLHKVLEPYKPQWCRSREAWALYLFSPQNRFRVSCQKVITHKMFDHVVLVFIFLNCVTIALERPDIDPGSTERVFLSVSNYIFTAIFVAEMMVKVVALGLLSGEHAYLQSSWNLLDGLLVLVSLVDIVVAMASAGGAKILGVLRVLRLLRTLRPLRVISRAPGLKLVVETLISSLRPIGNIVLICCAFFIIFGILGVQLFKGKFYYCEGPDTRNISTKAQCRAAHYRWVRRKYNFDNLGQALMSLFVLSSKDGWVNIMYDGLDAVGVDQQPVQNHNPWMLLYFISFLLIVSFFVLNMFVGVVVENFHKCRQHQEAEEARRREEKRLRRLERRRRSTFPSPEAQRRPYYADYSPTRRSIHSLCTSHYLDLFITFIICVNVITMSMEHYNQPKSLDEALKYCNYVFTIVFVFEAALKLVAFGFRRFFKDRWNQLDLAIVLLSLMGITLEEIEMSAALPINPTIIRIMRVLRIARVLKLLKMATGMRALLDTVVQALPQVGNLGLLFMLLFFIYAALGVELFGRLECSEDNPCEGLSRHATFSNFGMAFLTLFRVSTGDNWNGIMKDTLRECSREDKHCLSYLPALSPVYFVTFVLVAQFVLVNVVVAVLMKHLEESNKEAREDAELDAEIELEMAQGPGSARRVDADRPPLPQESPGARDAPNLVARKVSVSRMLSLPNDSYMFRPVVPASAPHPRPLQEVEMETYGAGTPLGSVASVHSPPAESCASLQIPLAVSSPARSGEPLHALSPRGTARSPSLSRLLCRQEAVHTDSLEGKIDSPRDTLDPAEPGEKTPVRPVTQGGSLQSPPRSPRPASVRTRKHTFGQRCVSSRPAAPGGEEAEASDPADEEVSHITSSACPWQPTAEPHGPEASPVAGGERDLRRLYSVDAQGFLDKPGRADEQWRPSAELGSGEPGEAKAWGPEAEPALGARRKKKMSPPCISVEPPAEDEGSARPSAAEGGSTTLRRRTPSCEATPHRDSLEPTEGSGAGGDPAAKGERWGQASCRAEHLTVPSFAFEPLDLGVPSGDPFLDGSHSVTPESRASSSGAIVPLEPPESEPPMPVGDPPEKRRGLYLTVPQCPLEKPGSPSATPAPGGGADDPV

| SMILES | IC50 [1] | IC50 |
| --- | --- | --- |
| CCC1(CNC(=O)c2ccn3c(CC4CCC(F)(F)CC4)c(C(F)(F)F)nc3c2)COC1 [Compound 56, 3-(4,4-Difluorocyclohexylmethyl)-N-{(3-ethyloxetan-3-yl)methyl}-2-trifluoromethylimidazo[1,2-a]pyridine-7-carboxamide] | < 100 nM |  |
| COCC1(CNC(=O)c2ccn3c(CC4CCC(F)(F)CC4)c(C(F)(F)F)nc3c2)CCOCC1 [Compound 59, 3-(4,4-Difluorocyclohexylmethyl)-N-[{4-(methoxymethyl)tetrahydro-2H-pyran-4-yl}methyl]-2-trifluoromethylimidazo[1,2-a]pyridine-7-carboxamide] |  | < 100 nM |
| Cc1cc(C(=O)NCC2COCCOC2)cc2nc(C(F)(F)F)c(CC3CCC(F)(F)CC3)n12 [Compound 93, N-{(1,4-Dioxepan-6-yl)methyl}-3-(4,4-difluorocyclohexylmethyl)-5-methyl-2-trifluoromethylimidazo[1,2-a]pyridine-7-carboxamide] | < 100 nM |  |
| CC(C)c1nc2cc(C(=O)NC3CC(F)(F)C3)c(Cl)cn2c1S(=O)(=O)NC(C)(C)C [Compound 158, 3-(N-tert-Butylsulfamoyl)-6-chloro-N-(3,3-difluorocyclobutyl)-2-isopropylimidazo[1,2-a]pyridine-7-carboxamide] | < 100 nM |  |
| CC(C)c1nc2cc(C(=O)NC3CC(F)(F)C3)c(Cl)cn2c1S(=O)(=O)N1CC(F)(F)C1 [Compound 151, 6-Chloro-3-(3,3-difluoroazetidin-1-ylsulfonyl)-N-(3,3-difluorocyclobutyl)-2-isopropylimidazo[1,2-a]pyridine-7-carboxamide] |  | < 100 nM |
| CC(C)(C)c1nc2cc(C(=O)NCc3ccccc3)ccn2c1CC1CCCCC1 [Compound 16, N-Benzyl-2-tert-butyl-3-cyclohexylmethylimidazo[1,2-a]pyridine-7-carboxamide] |  | < 100 nM |
| Cc1cc(C(=O)N(C)C2CCOCC2)cc2nc(C(F)(F)F)c(CC3CCC(F)(F)CC3)n12 [Compound 91, 3-(4,4-Difluorocyclohexylmethyl)-N,5-dimethyl-N-(tetrahydro-2H-pyran-4-yl)-2-trifluoromethylimidazo[1,2-a]pyridine-7-carboxamide] |  | < 100 nM |
| C#CC(C)(C)NS(=O)(=O)c1c(C(C)C)nc2cc(C(=O)Nc3ccccc3)c(Cl)cn12 [Compound 179, 6-Chloro-2-isopropyl-3-{N-(2-methylbut-3-yne-2-yl)sulfamoyl}-N-phenylimidazo[1,2-a]pyridine-7-carboxamide] | < 100 nM |  |
| Cc1cc(C(=O)NC2CCSCC2)cc2nc(C(F)(F)F)c(CC3CCC(F)(F)CC3)n12 [Compound 74, 3-(4,4-Difluorocyclohexylmethyl)-5-methyl-N-(tetrahydro-2H-thiopyran-4-yl)-2-trifluoromethylimidazo[1,2-a]pyridine-7-carboxamide] |  | < 100 nM |
| CC1(CNC(=O)c2ccn3c(CC4CCC(F)(F)CC4)c(C(F)(F)F)nc3c2)CCCO1 (stereo not drawn) [Compound 57, 3-(4,4-Difluorocyclohexylmethyl)-N-{(2-methyltetrahydrofuran-2-yl)methyl}-2-trifluoromethylimidazo[1,2-a]pyridine-7-carboxamide] | < 100 nM |  |
| CC(C)c1nc2cc(C(=O)Nc3ccccc3N)c(Cl)cn2c1S(=O)(=O)N1CC(F)(F)C1 [Compound 149, N-(2-Aminophenyl)-6-chloro-3-(3,3-difluoroazetidin-1-ylsulfonyl)-2-isopropylimidazo[1,2-a]pyridine-7-carboxamide] | < 100 nM |  |
| CC(C)(c1nc2cc(C(=O)NC3CCOCC3)c(Cl)cn2c1CC1CCC(F)(F)CC1)C(F)(F)F [Compound 115, 6-Chloro-3-(4,4-difluorocyclohexylmethyl)-N-(tetrahydro-2H-pyran-4-yl)-2-(1,1,1-trifluoro-2-methylpropan-2-yl)imidazo[1,2-a]pyridine-7-carboxamide] |  | < 100 nM |
| Cc1c(Cl)c(C(=O)NC2CCOCC2)cc2nc(C(F)(F)F)c(CC3CCC(F)(F)CC3)n12 [Compound 124, 6-Chloro-3-(4,4-difluorocyclohexylmethyl)-5-methyl-N-(tetrahydro-2H-pyran-4-yl)-2-trifluoromethylimidazo[1,2-a]pyridine-7-carboxamide] |  | < 100 nM |
| CC(C)c1nc2cc(C(=O)NOCc3ccccc3)c(Cl)cn2c1S(=O)(=O)NC(C)(C)C [Compound 159, N-Benzyloxy-3-(N-tert-butylsulfamoyl)-6-chloro-2-isopropylimidazo[1,2-a]pyridine-7-carboxamide] | < 100 nM |  |
| O=C(NCC1CCOC1)c1cc(Cl)n2c(CC3CCC(F)(F)CC3)c(C(F)(F)F)nc2c1 (stereo not drawn) [Compound 106, 5-Chloro-3-(4,4-difluorocyclohexylmethyl)-N-{(tetrahydrofuran-3-yl)methyl}-2-trifluoromethylimidazo[1,2-a]pyridine-7-carboxamide] |  | < 100 nM |
| Cc1cc(NC(=O)c2cc3nc(C(C)C)c(S(=O)(=O)NC(C)(C)C)n3cc2Cl)on1 [Compound 157, 3-(N-tert-Butylsulfamoyl)-6-chloro-2-isopropyl-N-(3-methylisooxazol-5-yl)imidazo[1,2-a]pyridine-7-carboxamide] | < 100 nM |  |
| CC(C)c1nc2cc(C(=O)Nc3ccccc3)c(Cl)cn2c1S(=O)(=O)Nc1ccccc1 [Compound 155, 6-Chloro-2-isopropyl-N-phenyl-3-(N-phenylsulfamoyl)imidazo[1,2-a]pyridine-7-carboxamide] | < 100 nM |  |

| SMILES | IC50 [1] | IC50 |
| --- | --- | --- |
| C=Cc1cn2c(CC3CCC(F)(F)CC3)c(C(F)(F)F)nc2cc1C(=O)Nc1ccccc1 [Compound 120, 3-(4,4-Difluorocyclohexylmethyl)-N-phenyl-2-trifluoromethyl-6-vinylimidazo[1,2-a]pyridine-7-carboxamide] | < 100 nM |  |
| CC(C)c1nc2cc(-c3nc4ccccc4[nH]3)ccn2c1COC1CCCCC1 [Compound 33, 2-(3-Cyclohexyloxymethyl-2-isopropylimidazo[1,2-a]pyridin-7-yl)-1H-benzimidazole] | < 100 nM |  |
| Cc1cn2c(S(=O)(=O)C3CCCCC3)c(C(C)C)nc2cc1C(=O)Nc1ccncc1 [Compound 39, 3-Cyclohexylsulfonyl-2-isopropyl-6-methyl-N-(pyridin-4-yl)imidazo[1,2-a]pyridine-7-carboxamide] |  | < 100 nM |
| CC(C)c1nc2cc(C(=O)NC3CCOC(C)(C)C3)c(Cl)cn2c1S(=O)(=O)N1CC(F)(F)C1 (stereo not drawn) [Compound 153, 6-Chloro-3-(3,3-difluoroazetidin-1-ylsulfonyl)-N-(2,2-dimethyltetrahydro-2H-pyran-4-yl)-2-isopropylimidazo[1,2-a]pyridine-7-carboxamide] |  | < 100 nM |
| CC(C)c1nc2cc(C(=O)Nc3ccncc3)ccn2c1Cc1ccccc1 [Compound 37, 3-Benzyl-2-isopropyl-N-(pyridin-4-yl)imidazo[1,2-a]pyridine-7-carboxamide] |  | < 100 nM |
| CC(C)c1nc2cc(C(=O)Nc3ccccc3)ccn2c1SC1CCCCC1 [Compound 40, 3-Cyclohexylthio-2-isopropyl-N-phenylimidazo[1,2-a]pyridine-7-carboxamide] |  | < 100 nM |
| CC(C)c1nc2cc(C(=O)Nc3ccccc3)ccn2c1S(=O)(=O)N(C1CC1)C1CC1 [Compound 131, 3-(N,N-Dicyclopropylsulfamoyl)-2-isopropyl-N-phenylimidazo[1,2-a]pyridine-7-carboxamide] |  | < 100 nM |
| CC(C)c1nc2cc(C(=O)NCC3CC3)c(Cl)cn2c1S(=O)(=O)N1CC(F)(F)C1 [Compound 150, 6-Chloro-N-cyclopropylmethyl-3-(3,3-difluoroazetidin-1-ylsulfonyl)-2-isopropylimidazo[1,2-a]pyridine-7-carboxamide] | < 100 nM |  |
| CC(C)(C)c1nc2cc(C(=O)NNC(=O)c3ccccc3)ccn2c1CC1CCCCC1 [Compound 17, N′-Benzoyl-2-tert-butyl-3-cyclohexylmethylimidazo[1,2-a]pyridine-7-carbohydrazide] |  | < 100 nM |
| CC(C)c1nc2cc(-c3nc4ccccc4[nH]3)c(Cl)cn2c1S(=O)(=O)N1CC(F)(F)C1 [Compound 170, 2-{6-Chloro-3-(3,3-difluoroazetidin-1-ylsulfonyl)-2-isopropylimidazo[1,2-a]pyridin-7-yl}-1H-benzimidazole] | < 100 nM |  |
| CS(=O)(=O)c1cccc(NC(=O)c2ccn3c(CC4CCC(F)(F)CC4)c(C(F)(F)F)nc3c2)c1 [Compound 48, 3-(4,4-Difluorocyclohexylmethyl)-N-(3-methanesulfonylphenyl)-2-trifluoromethylimidazo[1,2-a]pyridine-7-carboxamide] | < 100 nM |  |
| CC(C)c1nc2cc(C(=O)Nc3ccccc3)ccn2c1S(=O)(=O)N(C(C)C)C1CC1 [Compound 130, 3-(N-Cyclopropyl-N-isopropylsulfamoyl)-2-isopropyl-N-phenylimidazo[1,2-a]pyridine-7-carboxamide] |  | < 100 nM |
| Cc1cc(C(=O)NCC2(CO)CCOCC2)cc2nc(C(F)(F)F)c(CC3CCC(F)(F)CC3)n12 [Compound 85, 3-(4,4-Difluorocyclohexylmethyl)-N-[{4-(hydroxymethyl)tetrahydro-2H-pyran-4-yl}methyl]-5-methyl-2-trifluoromethylimidazo[1,2-a]pyridine-7-carboxamide] |  | < 100 nM |
| CC(C)c1nc2cc(C(=O)Nc3nccs3)ccn2c1COC1CCCCC1 [Compound 25, 3-Cyclohexyloxymethyl-2-isopropyl-N-(thiazol-2-yl)imidazo[1,2-a]pyridine-7-carboxamide] |  | < 100 nM |
| CC(C)CC(=O)N(C)c1ccn2c(CC3CCCCC3)c(C(C)(C)C)nc2c1 [Compound 19, N-(2-tert-Butyl-3-cyclohexylmethylimidazo[1,2-a]pyridin-7-yl)-N,3-dimethylbutanamide] |  | < 100 nM |
| COC1(CNC(=O)c2cc(C)n3c(CC4CCC(F)(F)CC4)c(C(F)(F)F)nc3c2)CCOCC1 [Compound 86, 3-(4,4-Difluorocyclohexylmethyl)-N-{(4-methoxytetrahydro-2H-pyran-4-yl)methyl}-5-methyl-2-trifluoromethylimidazo[1,2-a]pyridine-7-carboxamide] | < 100 nM |  |
